Some test systems named below: HOP-92; UACC-62; SF-295; HL-60; OVCAR-3; HOP-62; SR; TK-10; 786-0; HT-29; U-251; A549; UO-31; MOLT-4; UACC-257; HCT-116; OVCAR-4; SF-539; CCRF-CEM; OVCAR-8.
What all share (assay): growth of human tumour cells (NCI), 48 h

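Assay format: 96-well plates, 48-hour exposure. The concentration for 50% growth inhibition is given as GI50.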 Activity calls are given as the source filed them. No stated cut-off is given here; in the data, active = GI50 up to about 1.1 µM and inactive = higher.

With `Nc1nc(O)c(N)c(NCCOCP(=O)(O)O)n1`, the GI50 in the assay with HOP-92 is > 100 µM (inactive); in the assay with UACC-62, > 57.1 µM (inactive); with SF-295, > 100 µM (inactive); with HL-60 it was > 84.1 µM (inactive); in the assay with OVCAR-3 it was > 100 µM (inactive); in the assay with HOP-62, > 100 µM (inactive). Also, the GI50 with SR, with TK-10, with 786-0, in the assay on HT-29, in the assay on U-251 and in the assay with A549 was > 100 µM (inactive) throughout. Further, the GI50 with UO-31, in the assay with MOLT-4, with UACC-257, in the assay on HCT-116, in the assay with OVCAR-4 and in the assay on SF-539 was > 100 µM (inactive) each time. Moreover, the GI50 in the assay on CCRF-CEM and in the assay with OVCAR-8 was > 100 µM (inactive) in each case.
For the compound `COc1cccc2c3cccc(OC)c3c3[nH]cnc3c12`, the GI50 in the assay with HOP-92 is 6.04 µM (inactive); with UACC-62, 16.7 µM (inactive); in the assay with SF-295, 4.78 µM (inactive); in the assay on HL-60, 0.785 µM (active); with OVCAR-3, 13.9 µM (inactive); in the assay on HOP-62 it was 16.4 µM (inactive). Also, the GI50 with SR is 2.16 µM (inactive); in the assay on TK-10 it was 1.65 µM (inactive); in the assay with 786-0 it was 1.58 µM (inactive); with HT-29, 1.64 µM (inactive); with U-251, 1.67 µM (inactive); in the assay on A549, 1.57 µM (inactive). Also, the GI50 is 1.66 µM (inactive) in the assay on UO-31; 2.29 µM (inactive) in the assay with MOLT-4; 17.7 µM (inactive) with UACC-257; 1.63 µM (inactive) in the assay on HCT-116; 5.45 µM (inactive) in the assay on OVCAR-4; 1.32 µM (inactive) with SF-539. For the same compound, the GI50 with CCRF-CEM is 0.923 µM (active); in the assay on OVCAR-8, 1.94 µM (inactive).
Turning to `c1ccc2c3nnc(c2c1)SCCCSc1nnc(c2ccccc12)SCCCS3`, the GI50 with HOP-92 is 32.9 µM (inactive); in the assay on UACC-62, 31.7 µM (inactive); with SF-295 it was 92.3 µM (inactive); in the assay with HL-60 it was > 100 µM (inactive); with OVCAR-3, 25.8 µM (inactive); with HOP-62, 24.2 µM (inactive). Besides, the GI50 was 84.1 µM (inactive) in the assay with SR; 76.7 µM (inactive) with TK-10; 54.1 µM (inactive) in the assay with 786-0; > 100 µM (inactive) in the assay on HT-29; 76 µM (inactive) in the assay with U-251; 58.5 µM (inactive) in the assay with A549. The GI50 was > 100 µM (inactive) with UO-31; > 100 µM (inactive) in the assay with MOLT-4; > 100 µM (inactive) in the assay with UACC-257; > 100 µM (inactive) in the assay with HCT-116; 23.4 µM (inactive) in the assay with OVCAR-4; 11 µM (inactive) in the assay with SF-539. The GI50 is > 100 µM (inactive) with CCRF-CEM and 36.7 µM (inactive) in the assay on OVCAR-8.
For `C=C1[C@H](OCC(C)C)[C@@H](OC(=O)C(C)CC)[C@@H](O)C(C)(C)/C=C/[C@H](C)C(=O)[C@@]2(O)C[C@H](C)[C@H](O)[C@@H]2[C@H]1OC(=O)C(C)CC` (stereo partly drawn), the GI50 in the assay on HOP-92 is 1.79 µM (inactive); in the assay with UACC-62, 3.92 µM (inactive); in the assay with SF-295, 2.39 µM (inactive); in the assay on HL-60, 1.05 µM (active); with OVCAR-3, 4.94 µM (inactive); in the assay with HOP-62, 2.17 µM (inactive). Moreover, the GI50 in the assay with SR is 3.84 µM (inactive); in the assay on TK-10 it was 4 µM (inactive); in the assay on 786-0 it was 4.1 µM (inactive); in the assay with HT-29 it was 2.56 µM (inactive); with U-251 it was 5.82 µM (inactive); in the assay with A549, 1.38 µM (inactive). Besides, the GI50 with UO-31 is 0.499 µM (active); in the assay on MOLT-4, 2 µM (inactive); in the assay with UACC-257, 5.22 µM (inactive); in the assay on HCT-116 it was 4.88 µM (inactive); in the assay with OVCAR-4, 5.45 µM (inactive); in the assay on SF-539 it was 3.05 µM (inactive). Further, the GI50 in the assay with CCRF-CEM is 0.564 µM (active); in the assay with OVCAR-8, 9.98 µM (inactive).
Turning to `COC(=O)C(C(=O)OC)C1CCCC(=O)C1` (stereo not drawn), the GI50 with HOP-92, in the assay on UACC-62, in the assay with SF-295, with HL-60, with OVCAR-3 and with HOP-62 was > 100 µM (inactive) throughout. The GI50 with SR, in the assay on TK-10, in the assay with 786-0, in the assay with HT-29, with U-251 and in the assay with A549 was > 100 µM (inactive) throughout. For the same compound, the GI50 with UO-31, in the assay on MOLT-4, with UACC-257, with HCT-116, in the assay on OVCAR-4 and in the assay on SF-539 was > 100 µM (inactive) each time. Also, the GI50 in the assay with CCRF-CEM and in the assay on OVCAR-8 was > 100 µM (inactive) in each case.
Take `O=C1C2=C(CC3C(C2)C3(Br)Br)C(=O)C2=C1CC1C(C2)C1(Br)Br` (stereo not drawn): the GI50 with HOP-92, in the assay with UACC-62, with SF-295, in the assay on HL-60, in the assay on OVCAR-3 and with HOP-62 was > 100 µM (inactive) in each case. The GI50 with SR, in the assay on TK-10, with 786-0, in the assay on HT-29, in the assay on U-251 and in the assay with A549 was > 100 µM (inactive) in each case. Besides, the GI50 with UO-31, in the assay on MOLT-4, in the assay with UACC-257, in the assay with HCT-116, in the assay on OVCAR-4 and in the assay with SF-539 was > 100 µM (inactive) in each case. For the same compound, the results for the GI50 with CCRF-CEM and in the assay with OVCAR-8 were 61.9 µM (inactive) and > 100 µM (inactive), respectively.
Regarding `CC1(C)[C@H]2CC[C@@]13C(=O)N1C(=O)O[C@@H]([C@H]1Cl)C(Cl)(COCc1ccccc1)C(=O)OCCO[C@H]3C2` (stereo partly drawn), the GI50 in the assay with HOP-92 is > 100 µM (inactive); with UACC-62, 83.6 µM (inactive); in the assay with SF-295, 51.1 µM (inactive); in the assay with HL-60, 35.2 µM (inactive); in the assay on OVCAR-3, 54.2 µM (inactive); in the assay on HOP-62, > 100 µM (inactive). For the same compound, the GI50 in the assay on SR is 39.7 µM (inactive); with 786-0 it was 70 µM (inactive); with HT-29, 35.6 µM (inactive); with U-251, 39.4 µM (inactive); in the assay with A549, 54.3 µM (inactive); in the assay on UO-31, 96.4 µM (inactive). Further, the GI50 in the assay with MOLT-4 is 21 µM (inactive); with UACC-257, 48.9 µM (inactive); in the assay on HCT-116 it was 37.8 µM (inactive); with OVCAR-4 it was 40.6 µM (inactive); in the assay on SF-539, > 100 µM (inactive); in the assay on CCRF-CEM it was 38.5 µM (inactive). Further, in the assay on OVCAR-8, the GI50 was > 100 µM (inactive).
Turning to `CN(C)c1ccc(C(C#N)NNC(=O)Cc2ccccc2)cc1` (stereo not drawn), the GI50 in the assay with HOP-92, in the assay on UACC-62, with SF-295, in the assay with HL-60, in the assay on OVCAR-3 and in the assay on HOP-62 was > 100 µM (inactive) throughout. For the same compound, the GI50 in the assay with SR, in the assay with TK-10, in the assay with 786-0, in the assay with HT-29, in the assay with U-251 and in the assay on A549 was > 100 µM (inactive) each time. The GI50 in the assay with UO-31, in the assay on MOLT-4, with UACC-257, with HCT-116, in the assay on OVCAR-4 and with SF-539 was > 100 µM (inactive) throughout. The GI50 in the assay on CCRF-CEM and with OVCAR-8 was > 100 µM (inactive) throughout.
For the compound `COc1ccc([C@@H]2C[C@@H]3C(=O)OC(=O)[C@@H]3c3c2c2ccccc2n3C)cc1`, the GI50 with HOP-92, with UACC-62, in the assay on SF-295, in the assay with HL-60, with OVCAR-3 and in the assay with HOP-62 was > 100 µM (inactive) in each case. The GI50 with SR, in the assay with TK-10, in the assay with 786-0, in the assay on HT-29, with A549 and in the assay on UO-31 was > 100 µM (inactive) each time. Moreover, the GI50 with MOLT-4, with UACC-257, in the assay with HCT-116, in the assay on OVCAR-4, in the assay with SF-539 and with CCRF-CEM was > 100 µM (inactive) each time. Besides, the GI50 in the assay on OVCAR-8 was > 100 µM (inactive).
On to `N#Cc1c(Cl)nc2ccccc2c1N=[N+]=[N-]`, for which the GI50 in the assay on HOP-92 was 1.7 µM (inactive); in the assay with UACC-62, 2.63 µM (inactive); with SF-295 it was 8.55 µM (inactive); with HL-60, 1.8 µM (inactive); in the assay with OVCAR-3, 1.78 µM (inactive); in the assay with HOP-62, 17.3 µM (inactive). In addition, the GI50 is 0.875 µM (active) in the assay with SR; 4.82 µM (inactive) with TK-10; 2.8 µM (inactive) in the assay with 786-0; 1.92 µM (inactive) with HT-29; 5.19 µM (inactive) in the assay on U-251; 16.6 µM (inactive) in the assay with A549. The GI50 with UO-31 is 4.71 µM (inactive); in the assay with MOLT-4, 1.08 µM (active); with UACC-257 it was 12.7 µM (inactive); in the assay on HCT-116, 1.66 µM (inactive); in the assay on OVCAR-4 it was 1.91 µM (inactive); in the assay with SF-539, 2.15 µM (inactive). The GI50 in the assay on CCRF-CEM is 1.41 µM (inactive); with OVCAR-8, 3.02 µM (inactive).

Source of the values: ChEMBL document CHEMBL1201862, “PubChem BioAssay data set” (2004).
